Measured values published in patent US20170348331A1, “METHODS AND COMPOSITIONS FOR […] LEVELS” (Children's Hospital & Research Center at Oakland, priority 2013, published 2017).

Columns and labels:
TPH1 [1] = assay: TPH1 expression in peripheral blood cells of a pregnant mother by ELISA; type: in vivo, human; settings: pregnant mother with elevated TPH1, ~1,000 IU per 11.3 kg per day, after 4 weeks
Protocol: TPH1 expression levels are determined from peripheral blood cells by ELISA analysis from a pregnant mother. […] This means that the mother has increased risk of having autistic child. Vitamin D is then be administered ˜1,000 IU per 11.3 kg per day. After 4 weeks of the vitamin D treatment, TPH1 expression levels are assayed in peripheral blood by ELISA analysis again. […] The vitamin D treatment will continue through pregnancy and breastfeeding. This implies the risk of having autistic child is reduced.

TPH1 [2] = assay: TPH1 expression in placental tissue homogenate of a pregnant person by ELISA; type: in vivo, human; settings: pregnant person with elevated TPH1, about 1,000 IU per 11.3 kg per day, after 4 weeks
Protocol: TPH1 expression levels are determined from placental tissue homogenate obtained from a pregnant person by ELISA analysis. […] This means that the parent has increased risk of having child with autistic spectrum disorder. Vitamin D is then administered to the pregnant person at about 1,000 IU per 11.3 kg per day. After 4 weeks of the vitamin D treatment, TPH1 expression levels are assayed in placental tissue homogenate by ELISA analysis again. […] This implies the risk of having autistic child is reduced.

[3] = test system: regulatory T cells (Tregs); settings: vitamin D supplementation; cited from earlier work
melatonin production = settings: increasing doses of vitamin D supplementation; cited from earlier work

**Q.** Which “TPH1 expression level in peripheral blood” value (TPH1 [1]) does the source give for Vitamin D here?
**A.** decreased to normal range

**Q.** What about the “TPH1 expression level in placental tissue homogenate” value (TPH1 [2]) of the same substance?
**A.** decreased to normal range

**Q.** And the “Tregs in peripheral blood” value [3]?
**A.** significantly increase Tregs

**Q.** What about the melatonin production (melatonin production) of the same substance?
**A.** dose-dependent decrease
